Assay [1] deals with UPF1. Nature of the assay: Western blot of UPF1 cleavage and phosphorylation in MCF7 cells. The class given is cell-based, human. How it is done: MCF7 cells either were (top line) or were not (bottom line) pretreated with 5 μM doxorubicin for 1 h before addition of 3 μg ml^−1 actinomycin D to halt transcription. Cells were collected at the indicated times after actinomycin D addition. […] Error bars=S.E.M, n==4 independent biological quadruplicates. […] HeLa Tet-off cells were transfected with plasmids encoding human β-Gl Norm mRNA and MUP mRNA or β-Gl Ter mRNA and MUP mRNA. β-Gl Norm and β-Gl 39 Ter mRNA transcription occurs under the agency of the non-stress-responsive Tet-off promoter. Cells were either pretreated with nothing (top), 50 μM doxorubicin for 1 h (middle) or 50 μg ml^−1 puromycin for 3 h (bottom) before transcriptional shut-off with 2 μg ml^−1 doxycycline. Cell aliquots were removed at the indicated “chase” time points, and RT-qPCR was used to assess the remaining levels of β-Gl Norm and β-Gl Ter mRNAs, each after normalization to MUP mRNA.
UPF1 CP may result from cleavage of endogenous UPF1 or the transfected construct, but the use of anti-FLAG allows unambiguous assignment of UPF1-FLAG CP as derived from MYC-UPF1-FLAG. α, anti; h, hour(s). […] To serve as molecular weight standards for UPF1 CP, lysates of MCF7 cells transiently expressing a UPF1-FLAG protein encompassing the residues specified were also analyzed. […] The D37 cleavage site encompassing P4-P1 residues is boxed. […] Immunoblots are representative of at least 2 independent experiments.
Cells were lysed, and protein was isolated using hypotonic buffer that consists of 10 mM Tris-C1, pH 7.4, 10 mM NaCl, 2 mM EDTA, 0.5% Triton X-100, 2 mM benzamidine, 1 mM PMSF, NEM (50 μg/mL), 1× phosphatase inhibitor cocktail (Roche), and 1× protease inhibitor cocktail (Roche; Basel, Switzerland). After 10 minutes of incubation at 4° C., NaCl was added to 150 mM, and lysates were cleared by centrifugation. Proteins were resolved using SDS-PAGE, transferred to Hybond ECL nitrocellulose (GE), and probed using antibody that recognizes one of the following: UPF1(1-416) (1:2000^8), p-UPF1 S1116 (1:1000; Millipore 07-1016; Billerica, Mass.), p-UPF1 S1089 (1:1000; Millipore 07-1015), Calnexin (1:2000; Enzo Life Sciences ADISPA860; Farmingdale, N.Y.), UPF2 (1:200; Santa Cruz Biotechnology C18 20227; Dallas, Tex.), UPF3× and 3 (1:1000^8), MLN51 (1:1000; Bethyl Laboratories A302-471; Montgomery, Tex.), GAPDH (1:200; Santa Cruz Biotechnology 25778), CBP80 (1:1000; Bethyl Laboratories A301-793), SMG5 (1:1000; Abcam 33033; Cambridge, United Kingdom), SMG6 (1:1000; Abcam 57539), SMG7 (1:1000; Bethyl Laboratories 302-170A), SMG1 (1:1000; Cell Signaling D42D5; Danvers, Mass.), Cleaved Caspase 3 (1:1000; Cell Signaling 9664), Cleaved Caspase 9 (1:1000; Cell Signaling 7237), PARP (1:1000; Cell Signaling 9542), Cleaved PARP (1:200; Santa Cruz Biotechnology sc56196) PLC-γ1 (1:200; Santa Cruz Biotechnology 58407), α-Tubulin (1:1000; Cell Signaling 3873P), FLAG (1:5000; Sigma, clone M2 a5982), HA (1:5000; Roche, clone 3F10 12013819001), or MYC (1:1000; Cell Signaling, clone 9B110 2276). Immunoreactivity was assessed using SuperSignal West Pico or Femto (Pierce Biotechnology; Waltham, Mass.).
Biochemical changes to the key NMD factor, UPF1, that correlate with doxorubicin treatment (FIG. 1c), were examined. MCF7 cells were exposed to doxorubicin (5 μM) for varying amounts of time and cell lysates were analyzed using western blotting and an in-house generated polyclonal rabbit serum raised against the N-terminal 416 amino acids of human UPF1. […]

The test system of assay [2] is UPF1. The assay is described as follows: Western blot of UPF1 CP generation in COS-7 cells. The format is cell-based, African green monkey. Particulars: COS-7, 2 μM staurosporine or 2 μg/mL doxorubicin. How it is done: FIG. 10b is essentially as in a, but using lysates of HEK293T cells exposed to 1 μM staurosporine. FIG. 10c is essentially as in a, but using lysates of human Daudi B lymphoblasts exposed to 40 ng/mL TNF-α or 2 μg/mL doxorubicin. FIG. 10d is essentially as in a, but using lysates of human Jurkat T cells exposed to 1 μM staurosporine. FIG. 10e is essentially as in a, but using lysates of canine MDCK cells exposed to 2 μM staurosporine. FIG. 10f is essentially as in a, but using lysates of bovine MDBK cells exposed to 2 μM staurosporine. FIG. 10g is essentially as in a, but using lysates of Chinese Hamster Ovary (CHO) cells exposed to 2 μM staurosporine. FIG. 10h is essentially as in a, but using lysates of African green monkey COS-7 cells exposed to 2 μM staurosporine or 2 μg/mL doxorubicin. At least two apoptotic inducers were used for each cell line, and at least two cell lines were tested with each apoptotic inducer.
Cells were lysed, and protein was isolated using hypotonic buffer that consists of 10 mM Tris-C1, pH 7.4, 10 mM NaCl, 2 mM EDTA, 0.5% Triton X-100, 2 mM benzamidine, 1 mM PMSF, NEM (50 μg/mL), 1× phosphatase inhibitor cocktail (Roche), and 1× protease inhibitor cocktail (Roche; Basel, Switzerland). […] Immunoreactivity was assessed using SuperSignal West Pico or Femto (Pierce Biotechnology; Waltham, Mass.).

Molecules are shown by their SMILES. Bounds are passed on as bounds.

Consider `COc1cccc2c1C(=O)c1c(O)c3c(c(O)c1C2=O)C[C@@](O)(C(=O)CO)C[C@@H]3O[C@H]1C[C@H](N)[C@H](O)[C@H](C)O1` [doxorubicin, Doxorubicin], for which, in assay [1] (MCF7, 5 μM doxorubicin), the “time at which UPF1 phosphorylation (S1116) levels diminish” value is listed as not above 5 h and the “time at which two additional UPF1 bands of greater mobility were resolved” value is not above 5 h. Moreover, in assay [1] (MCF7, 50 μM doxorubicin), the “time at which higher-mobility UPF1 species were generated” value is not above 2 h and the “time of production of the PARP cleavage product” value amounted to 8 h. Besides, the “UPF1 CP level relative to uncleaved UPF1” value in assay [1] (MCF7 stably transduced with MYC-UPF1-FLAG WT, 5 μM doxorubicin 16 h) is “about one-third the level of uncleaved UPF1”. Further, the “UPF1 CP generation” value in assay [2] is reported as “yielded a UPF1 CP”.
